ChEMBL document CHEMBL3885861, “Open TG-GATES”

Organism: Rattus norvegicus
Assay: Open TG-GATES - Regimen: Daily Repeat
Format: toxicity, organism-based, Sprague-Dawley
Set-up: regimen Daily Repeat, gender Male, age 6 weeks
Conditions: in vivo, po, route gavage; for GLC / IP / K / LDH / Na / PL / RALB / TBIL / TC / TG / TP / gamma-GTP / A/G / ALP / ALT / AST / BUN / CRE / Ca / Cl / DBIL: tissue Plasma; for APTT / Bas / Eos / Fbg / Hb / Ht / Lym / MCH / MCHC / MCV / Mono / Neu / PT / Plat / RBC / Ret / WBC: tissue Blood; for KIDNEY_L / KIDNEY_R / KIDNEY_TOTAL: tissue Kidney; for LIVER: tissue Liver
[1] = 10 mg/kg, […], dose level Middle, time 14 day
[2] = 10 mg/kg, […], dose level Middle, time 28 day
[3] = 30 mg/kg, 72 h, dose level High, time 3 day
[4] = 30 mg/kg, […], dose level High, time 7 day
[5] = 30 mg/kg, […], dose level High, time 14 day

**Q.** How did the GLC [1] turn out when `CCN(CC)N=O` [N-NITROSODIETHYLAMINE] was run?
**A.** 180 mg/dL

**Q.** And the IP [1]?
**A.** 7 mg/dL

**Q.** And the K [1]?
**A.** 3.8 meq/L

**Q.** And the LDH [1]?
**A.** 259 IU/L

**Q.** And the Na [1]?
**A.** 140.2 meq/L

**Q.** And the PL [1]?
**A.** 140.2 mg/dL

**Q.** What about the RALB [1] of the same compound?
**A.** 3.4 g/dL

**Q.** And the TBIL [1]?
**A.** 0.2 mg/dL

**Q.** And the TC [1]?
**A.** 70.4 mg/dL

**Q.** What about the TG [1] of the same compound?
**A.** 67.6 mg/dL

**Q.** And the TP [1]?
**A.** 5.5 g/dL

**Q.** And the gamma-GTP [1]?
**A.** 2.2 IU/L

**Q.** And the A/G [2]?
**A.** 1.7

**Q.** And the ALP [2]?
**A.** 1261.4 IU/L

**Q.** What about the ALT [2] of the same compound?
**A.** 69 IU/L

**Q.** And the AST [2]?
**A.** 110.4 IU/L

**Q.** What about the BUN [2] of the same compound?
**A.** 15 mg/dL

**Q.** And the CRE [2]?
**A.** 0.5 mg/dL

**Q.** And the Ca [2]?
**A.** 9.9 mg/dL

**Q.** And the Cl [2]?
**A.** 103.6 meq/L

**Q.** What about the DBIL [2] of the same compound?
**A.** 0.1 mg/dL

**Q.** What about the GLC [2] of the same compound?
**A.** 165.8 mg/dL

**Q.** What about the IP [2] of the same compound?
**A.** 5.9 mg/dL

**Q.** And the K [2]?
**A.** 3.5 meq/L

**Q.** And the LDH [2]?
**A.** 242 IU/L

**Q.** What about the Na [2] of the same compound?
**A.** 140.6 meq/L

**Q.** And the PL [2]?
**A.** 146.2 mg/dL

**Q.** And the RALB [2]?
**A.** 3.3 g/dL

**Q.** What about the TBIL [2] of the same compound?
**A.** 0.2 mg/dL

**Q.** What about the TC [2] of the same compound?
**A.** 70.8 mg/dL

**Q.** And the TG [2]?
**A.** 79.2 mg/dL

**Q.** What about the TP [2] of the same compound?
**A.** 5.3 g/dL

**Q.** And the gamma-GTP [2]?
**A.** 3.2 IU/L

**Q.** And the TERMINAL_BW [3]?
**A.** 209.6 g

**Q.** What about the APTT [3] of the same compound?
**A.** 17.1 s

**Q.** What about the Bas [3] of the same compound?
**A.** 0.6%

**Q.** What about the Eos [3] of the same compound?
**A.** 1.4%

**Q.** What about the Fbg [3] of the same compound?
**A.** 211.6 mg/dL

**Q.** And the Hb [3]?
**A.** 15.6 g/dL

**Q.** And the Ht [3]?
**A.** 44.7%

**Q.** What about the Lym [3] of the same compound?
**A.** 81.2%

**Q.** What about the MCH [3] of the same compound?
**A.** 21.3 pg

**Q.** And the MCHC [3]?
**A.** 34.8%

**Q.** And the MCV [3]?
**A.** 61.1 fL

**Q.** What about the Mono [3] of the same compound?
**A.** 3.4%

**Q.** And the Neu [3]?
**A.** 12.6%

**Q.** And the PT [3]?
**A.** 14.2 s

**Q.** And the Plat [3]?
**A.** 134.9 x10_4/uL

**Q.** What about the RBC [3] of the same compound?
**A.** 732.4 x10_4/ul

**Q.** And the Ret [3]?
**A.** 4%

**Q.** And the WBC [3]?
**A.** 84.6 x10_2/uL

**Q.** And the KIDNEY_L [3]?
**A.** 1 g

**Q.** What about the KIDNEY_R [3] of the same compound?
**A.** 0.9 g

**Q.** What about the KIDNEY_TOTAL [3] of the same compound?
**A.** 1.9 g

**Q.** What about the LIVER [3] of the same compound?
**A.** 7.6 g

**Q.** And the A/G [3]?
**A.** 1.8

**Q.** What about the ALP [3] of the same compound?
**A.** 979.2 IU/L

**Q.** What about the ALT [3] of the same compound?
**A.** 64.4 IU/L

**Q.** And the AST [3]?
**A.** 196.8 IU/L

**Q.** What about the BUN [3] of the same compound?
**A.** 12.4 mg/dL

**Q.** What about the CRE [3] of the same compound?
**A.** 0.4 mg/dL

**Q.** And the Ca [3]?
**A.** 10.4 mg/dL

**Q.** What about the Cl [3] of the same compound?
**A.** 103.2 meq/L

**Q.** What about the DBIL [3] of the same compound?
**A.** 0.1 mg/dL

**Q.** And the GLC [3]?
**A.** 174.6 mg/dL

**Q.** And the IP [3]?
**A.** 7.5 mg/dL

**Q.** What about the K [3] of the same compound?
**A.** 4 meq/L

**Q.** What about the LDH [3] of the same compound?
**A.** 316.8 IU/L

**Q.** And the Na [3]?
**A.** 140.4 meq/L

**Q.** And the PL [3]?
**A.** 135.8 mg/dL

**Q.** What about the RALB [3] of the same compound?
**A.** 3.4 g/dL

**Q.** And the TBIL [3]?
**A.** 0.2 mg/dL

**Q.** What about the TC [3] of the same compound?
**A.** 80.6 mg/dL

**Q.** What about the TG [3] of the same compound?
**A.** 59.4 mg/dL

**Q.** What about the TP [3] of the same compound?
**A.** 5.2 g/dL

**Q.** What about the gamma-GTP [3] of the same compound?
**A.** 1.6 IU/L

**Q.** And the TERMINAL_BW [4]?
**A.** 200.4 g

**Q.** And the TERMINAL_BW [5]?
**A.** 195.1 g

**Q.** What about the APTT [4] of the same compound?
**A.** 21.4 s

**Q.** And the Bas [4]?
**A.** 1%

**Q.** And the Eos [4]?
**A.** 1%

**Q.** And the Fbg [4]?
**A.** 153.6 mg/dL

**Q.** What about the Hb [4] of the same compound?
**A.** 17.4 g/dL

**Q.** What about the Ht [4] of the same compound?
**A.** 49%

**Q.** And the Lym [4]?
**A.** 76%

**Q.** What about the MCH [4] of the same compound?
**A.** 21.1 pg

**Q.** And the MCHC [4]?
**A.** 35.6%

**Q.** What about the MCV [4] of the same compound?
**A.** 59.2 fL

**Q.** What about the Mono [4] of the same compound?
**A.** 4.4%

**Q.** And the Neu [4]?
**A.** 17.4%

**Q.** What about the PT [4] of the same compound?
**A.** 19.5 s

**Q.** And the Plat [4]?
**A.** 126.6 x10_4/uL

**Q.** And the RBC [4]?
**A.** 827 x10_4/ul

**Q.** And the Ret [4]?
**A.** 1.6%

**Q.** And the WBC [4]?
**A.** 117.4 x10_2/uL

**Q.** And the APTT [5]?
**A.** 87.2 s

**Q.** And the Bas [5]?
**A.** 1%

**Q.** What about the Eos [5] of the same compound?
**A.** 0%

**Q.** What about the Fbg [5] of the same compound?
**A.** 66 mg/dL

**Q.** What about the Hb [5] of the same compound?
**A.** 16.7 g/dL

**Q.** What about the Ht [5] of the same compound?
**A.** 48.8%

**Q.** What about the Lym [5] of the same compound?
**A.** 26%

**Q.** What about the MCH [5] of the same compound?
**A.** 20.7 pg

**Q.** And the MCHC [5]?
**A.** 34.2%

**Q.** And the MCV [5]?
**A.** 60.5 fL

**Q.** What about the Mono [5] of the same compound?
**A.** 7%

**Q.** What about the Neu [5] of the same compound?
**A.** 65%

**Q.** What about the PT [5] of the same compound?
**A.** 63.4 s

**Q.** What about the Plat [5] of the same compound?
**A.** 112.1 x10_4/uL

**Q.** What about the RBC [5] of the same compound?
**A.** 807 x10_4/ul

**Q.** And the Ret [5]?
**A.** 3.6%

**Q.** And the WBC [5]?
**A.** 108.1 x10_2/uL

**Q.** What about the KIDNEY_L [4] of the same compound?
**A.** 0.9 g

**Q.** And the KIDNEY_R [4]?
**A.** 0.9 g

**Q.** And the KIDNEY_TOTAL [4]?
**A.** 1.8 g

**Q.** What about the KIDNEY_L [5] of the same compound?
**A.** 1.2 g

**Q.** What about the KIDNEY_R [5] of the same compound?
**A.** 1.2 g

**Q.** And the KIDNEY_TOTAL [5]?
**A.** 2.4 g

**Q.** What about the LIVER [4] of the same compound?
**A.** 4.6 g

**Q.** What about the LIVER [5] of the same compound?
**A.** 2.7 g

**Q.** What about the A/G [4] of the same compound?
**A.** 2

**Q.** And the ALP [4]?
**A.** 1514 IU/L

**Q.** What about the ALT [4] of the same compound?
**A.** 160.2 IU/L

**Q.** And the AST [4]?
**A.** 315.6 IU/L

**Q.** What about the BUN [4] of the same compound?
**A.** 12.6 mg/dL

**Q.** What about the CRE [4] of the same compound?
**A.** 0.4 mg/dL

**Q.** What about the Ca [4] of the same compound?
**A.** 9.6 mg/dL

**Q.** What about the Cl [4] of the same compound?
**A.** 104.2 meq/L

**Q.** What about the DBIL [4] of the same compound?
**A.** 0.7 mg/dL

**Q.** And the GLC [4]?
**A.** 140.4 mg/dL

**Q.** And the IP [4]?
**A.** 7 mg/dL

**Q.** What about the K [4] of the same compound?
**A.** 3.9 meq/L

**Q.** And the LDH [4]?
**A.** 465.4 IU/L

**Q.** What about the Na [4] of the same compound?
**A.** 138.6 meq/L

**Q.** And the PL [4]?
**A.** 171 mg/dL

**Q.** What about the RALB [4] of the same compound?
**A.** 2.9 g/dL

**Q.** What about the TBIL [4] of the same compound?
**A.** 0.9 mg/dL

**Q.** And the TC [4]?
**A.** 109 mg/dL

**Q.** And the TG [4]?
**A.** 27.4 mg/dL

**Q.** And the TP [4]?
**A.** 4.4 g/dL

**Q.** And the gamma-GTP [4]?
**A.** 9.2 IU/L

**Q.** What about the A/G [5] of the same compound?
**A.** 2.8

**Q.** And the ALP [5]?
**A.** 1357 IU/L

**Q.** And the ALT [5]?
**A.** 206 IU/L

**Q.** And the AST [5]?
**A.** 748 IU/L

**Q.** And the BUN [5]?
**A.** 47 mg/dL

**Q.** And the CRE [5]?
**A.** 0.7 mg/dL

**Q.** What about the Ca [5] of the same compound?
**A.** 9.4 mg/dL

**Q.** And the Cl [5]?
**A.** 90 meq/L

**Q.** And the DBIL [5]?
**A.** 4.2 mg/dL

**Q.** What about the GLC [5] of the same compound?
**A.** 61 mg/dL

**Q.** What about the IP [5] of the same compound?
**A.** 9.2 mg/dL

**Q.** What about the K [5] of the same compound?
**A.** 4.5 meq/L

**Q.** And the LDH [5]?
**A.** 983 IU/L

**Q.** What about the Na [5] of the same compound?
**A.** 130 meq/L

**Q.** And the PL [5]?
**A.** 245 mg/dL

**Q.** And the RALB [5]?
**A.** 2.2 g/dL

**Q.** What about the TBIL [5] of the same compound?
**A.** 5.1 mg/dL

**Q.** And the TC [5]?
**A.** 231 mg/dL

**Q.** And the TG [5]?
**A.** 88 mg/dL

**Q.** What about the TP [5] of the same compound?
**A.** 3 g/dL

**Q.** And the gamma-GTP [5]?
**A.** 16 IU/L
